Results from patent publication US4544556A, “Xanthine derivatives, pharmaceutical compositions containing same and their therapeutic use” (Malesci S.p.A. Istituto Farmacologico, priority 1982, dated 1985).
Like-named read-outs stand apart in the source and are kept apart here.

Legend:
[1] = system: acetylcholine induced bronchospasm; test: Antibronchospastic activity (acetylcholine induced bronchospasm, Konzett-Rossler method); type: in vivo, guinea pigs; conditions: Cavia porcellus, im, read-out: ED50 (50% reduction of acetylcholine induced bronchospasm)
Source text: The test has been carried out in anaesthesized adult guinea pigs under artificial respiration.

heart P.D.E. = test: Antiphosphodiesterase activity, heart P.D.E.; type: biochemical, Wistar rats; conditions: rat heart, relative to theophylline
Source text: (§1) The preparation of the enzyme from heart, lungs and brain of Wistar rats and the activity test of P.D.E. have been carried out according to the R. W. BUTCHER and E. W. […] (J. Biol. Chem. 237, 1244; 1962).

guinea pigs = test: Activity on CNS: reaction to subtoxic dose of cardiazole, guinea pigs; type: in vivo; conditions: cardiazole i.p. 60-70 mg/Kg
brain P.D.E. = test: Antiphosphodiesterase activity, brain P.D.E.; type: biochemical, Wistar rats; conditions: rat brain, relative to theophylline
Source text: as §1

rats = test: Activity on CNS: reaction to subtoxic dose of cardiazole, rats; type: in vivo; conditions: cardiazole i.p. 60-70 mg/Kg
lung P.D.E. = test: Antiphosphodiesterase activity, lung P.D.E.; type: biochemical, Wistar rats; conditions: rat lungs, relative to theophylline
Source text: as §1

Acute toxicity = conditions: mouse, in vivo, male Swiss mouses about 20 g, empty since 16 hours, read-out: DL50 (the source's name)
Experimental: The compound has been administered either per os or by intravenous injection to male Swiss mouses having a weight of about 20 g, empty since 16 hours.

mouses = test: Activity on CNS: reaction to subtoxic dose of cardiazole, mouses; type: in vivo; conditions: cardiazole i.p. 60-70 mg/Kg
[2] = 0.5 h, 30' after intramuscular administration
[3] = 1 h, 60' after intramuscular administration
[4] = 1.5 h, 90' after intramuscular administration

CC(C)Cn1cnc2c1c(=O)n(C)c(=O)n2C [7-isobutyl theophylline, 1,3-dimethyl-7-isobutyl-xanthine]
ED50 [1, 2]: 120 µmol/kg | ED50 [1, 3]: 140 µmol/kg | ED50 [1, 4]: 160 µmol/kg | activity against heart P.D.E. in comparison with theophylline (heart P.D.E.): four times more active | % dead animals (guinea pigs; 50 mg/kg S.C. (20')): 0% | % dead animals (guinea pigs; 100 mg/kg S.C. (20')): 0% | activity against brain P.D.E. in comparison with theophylline (brain P.D.E.): twice more active | % dead animals (rats; 50 mg/kg S.C. (20')): 0% | % dead animals (rats; 100 mg/kg S.C. (20')): 0% | activity against lung P.D.E. in comparison with theophylline (lung P.D.E.): four times more active | LD50 (Acute toxicity; po, per os): 199 mg/kg | LD50 (Acute toxicity; intravenous injection): 129 mg/kg | % dead animals (mouses; 25 mg/kg S.C. (20')): 0% | % dead animals (mouses; 50 mg/kg S.C. (20')): 0% | % dead animals (mouses; 100 mg/kg S.C. (20')): 0%

Cn1c(=O)c2[nH]cnc2n(C)c1=O [Theophylline, theophylline, reference compound]
ED50 [1, 2]: 270 µmol/kg | ED50 [1, 3]: 230 µmol/kg | ED50 [1, 4]: 200 µmol/kg
